According to patent US20240299316A1, “METHOD FOR TREATING CANCER WITH A[…] RADIATION” (LANTERN PHARMA INC., priority 2021, published 2024):
“Also recorded” adds a separate entry of the source.

Test system: Panc03.27 xenografts
Assay: Radiation (RT) pretreatment followed by LP-184 in subcutaneous Panc03.27 pancreatic xenografts
Assay type: in vivo, Mice
Conditions: for interaction of radiation with LP-184 on tumor volume (synergy) / mean terminal tumor volume of LP-184+RT group relative to LP-184 alone or RT alone: 4 Gy RT + 3 mg/kg i.p. LP-184, 3 mg/kg; for interaction of radiation with LP-184 on tumor volume (synergy): average tumor volume over days post treatment initiation; for mean terminal tumor volume of LP-184+RT group relative to LP-184 alone or RT alone: p value 0.017
Description: Radiation (RT) pretreatment of pancreatic tumors and subsequent (−)-hydroxyureamethyl acylfulvene treatment in vivo, 4 Gy RT was administered once weekly followed the next day by 3 mg/kg i.p. LP-184 in Panc03.27 xenografts for a total of 3 weeks. Mice bearing pre-established subcutaneous. Panc03.27 xenografts were treated with vehicle control, 4 Gy RT alone, 3 mg/kg LP-184 alone or their combination.
A line plot of average tumor volume in cubic millimeters over days post treatment initiation in Panc03.27 subcutaneous xenograft tumors treated with vehicle control (gray circles; N=6) is shown, 4 Gy RT alone (red squares; N=5), 3 mg/kg i.p. LP-184 alone (green triangles; N=6), and RT+LP-184 (blue inverted triangles; N=10). Error bars represent SEM.

`CC1=C2C(=CC(C)C2CN(O)C(N)=O)C(=O)[C@](C)(O)C12CC2` (single isomer, unassigned; (-)) [LP-184, (−)-hydroxyureamethyl acylfulvene] was tested, and the “interaction of radiation with LP-184 on tumor volume (synergy)” value was “synergized”, the “interaction of radiation with LP-184 on tumor volume (synergy)” value (listed as hydroxyureamethyl acylfulvene) was “synergy” and the “mean terminal tumor volume of LP-184+RT group relative to LP-184 alone or RT alone” value (day 21) was “statistically significant differences; also recorded: statistically smaller”. For the same compound, the “mean terminal tumor volume of LP-184+RT group relative to LP-184 alone or RT alone” value (day 21, listed as hydroxyureamethyl acylfulvene) was “statistically smaller”, the “mean tumor volume, fold lower in LP-184+RT animals compared to LP-184 alone animals” value (4 Gy RT once weekly followed next day by 3 mg/kg i.p. LP-184, 3 weeks, terminal tumors day 21, p=0.017) was ~1.8 fold and the “comparison of excised xenograft tumors at study termination across treatment arms” value (LP-184+RT group, day 21, FIG. 3) was “smallest mean volume”. For the same compound, the “efficacy of combination therapy using post-radiation treatment” value (post-radiation treatment with LP-184, pancreatic cancer) was “effective”.
